Results from the supplement of paper PMC11451515.

Experiments:
Conditions in all cases: 48 h
[1] = tested on: NOMO1; test: cell viability relative to DMSO control; higher = less cytotoxic
How it was run: (§1)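 Three leukemia lines were tested: NOMO1 and SEM at 500 cells/well and P12-Ichikawa at 1000 cells/well. Each was adapted for at least four passages in each medium and seeded in 5 μl in 1536-well plates, and library compounds in DMSO were pin-dosed from 47 μM to 0.79 nM in 11 threefold steps. After 48 h at 37°C, CellTiter-Glo One luminescence was read. Viability is a percentage relative to DMSO wells on each plate, with cell-free wells as background.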

[2] = tested on: P12-Ichikawa; test: as above
How it was run: as §1

[3] = tested on: SEM cells; test: as above
How it was run: as §1

[4] = tested on: NOMO1; test: AUC of viability dose-response curve (% viability x log10 dose units); higher = less sensitive
How it was run: (§2)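 Leukemia cells adapted to each medium (500 or 1000 cells/well, 1536-well plates) were exposed to library compounds in DMSO for 48 h at 37°C at 11 threefold doses, 47 μM to 0.79 nM. Luminescence by CellTiter-Glo One was normalised per plate to DMSO and cell-free wells, then fitted with a four-parameter log-logistic curve on log10 dose. Curves above full viability were scaled and quality-control failures removed before area under the curve was integrated by trapezoidal rule.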

[5] = tested on: P12-Ichikawa; test: as above
How it was run: as §2

[6] = tested on: SEM cells; test: as above
How it was run: as §2

COc1cccc2c1CCCC2CCCN1CCN(C2CCCCC2)CC1 (centres undefined)
cell viability [%]
Conditions	[1]	[2]	[3]
HPLM + 10% dialyzed FBS, 0.000781 µM	97.9	104	88.4
HPLM + 10% dialyzed FBS, 0.00234 µM	105	110	85
HPLM + 10% dialyzed FBS, 0.00702 µM	99.9	97.7	80.9
HPLM + 10% dialyzed FBS, 0.0211 µM	106	112	91.1
HPLM + 10% dialyzed FBS, 0.0632 µM	114	106	91.6
HPLM + 10% dialyzed FBS, 0.19 µM	138	113	110
HPLM + 10% dialyzed FBS, 0.569 µM	111	111	96.9
HPLM + 10% dialyzed FBS, 1.71 µM	105	110	88.8
HPLM + 10% dialyzed FBS, 5.12 µM	96.7	109	97.1
HPLM + 10% dialyzed FBS, 15.4 µM	99.7	103	83.5
HPLM + 10% dialyzed FBS, 46.1 µM	57	81.5	55.3
RPMI 5 mM glucose + 10% FBS, 0.000781 µM	102	111	87.8
RPMI 5 mM glucose + 10% FBS, 0.00234 µM	107	99.9	85.6
RPMI 5 mM glucose + 10% FBS, 0.00702 µM	109	117	89.9
RPMI 5 mM glucose + 10% FBS, 0.0211 µM	100	114	91.1
RPMI 5 mM glucose + 10% FBS, 0.0632 µM	99.5	127	101
RPMI 5 mM glucose + 10% FBS, 0.19 µM	103	119	107
RPMI 5 mM glucose + 10% FBS, 0.569 µM	103	116	103
RPMI 5 mM glucose + 10% FBS, 1.71 µM	94	122	97
RPMI 5 mM glucose + 10% FBS, 5.12 µM	96.2	114	81.3
RPMI 5 mM glucose + 10% FBS, 15.4 µM	89.7	99.5	79.1
RPMI 5 mM glucose + 10% FBS, 46.1 µM	66.2	62.9	42.9
RPMI 5 mM glucose + 10% dialyzed FBS, 0.000781 µM	89.2	95.7	87.7
RPMI 5 mM glucose + 10% dialyzed FBS, 0.00234 µM	100	102	83.3
RPMI 5 mM glucose + 10% dialyzed FBS, 0.00702 µM	98	114	97
RPMI 5 mM glucose + 10% dialyzed FBS, 0.0211 µM	92.7	111	102
RPMI 5 mM glucose + 10% dialyzed FBS, 0.0632 µM	93.1	116	111
RPMI 5 mM glucose + 10% dialyzed FBS, 0.19 µM	104	110	114
RPMI 5 mM glucose + 10% dialyzed FBS, 0.569 µM	92.9	111	104
RPMI 5 mM glucose + 10% dialyzed FBS, 1.71 µM	94.8	103	91
RPMI 5 mM glucose + 10% dialyzed FBS, 5.12 µM	109	105	96.7
RPMI 5 mM glucose + 10% dialyzed FBS, 15.4 µM	87.9	93.4	87.6
RPMI 5 mM glucose + 10% dialyzed FBS, 46.1 µM	58	66.2	52.5

AUC of viability dose-response curve
Conditions	[4]	[5]	[6]
HPLM + 10% dialyzed FBS	462	469	427
RPMI 5 mM glucose + 10% FBS	457	459	428
RPMI 5 mM glucose + 10% dialyzed FBS	450	460	454

CC(C)OC1=CC=C2C(=C1)O\C=C(/C2=O)C3=CC=CC=C3
cell viability [%]
Conditions	[1]	[2]	[3]
HPLM + 10% dialyzed FBS, 0.000781 µM	116	118	106
HPLM + 10% dialyzed FBS, 0.00234 µM	119	126	118
HPLM + 10% dialyzed FBS, 0.00702 µM	130	122	105
HPLM + 10% dialyzed FBS, 0.0211 µM	143	128	118
HPLM + 10% dialyzed FBS, 0.0632 µM	151	120	115
HPLM + 10% dialyzed FBS, 0.19 µM	120	119	123
HPLM + 10% dialyzed FBS, 0.569 µM	122	124	110
HPLM + 10% dialyzed FBS, 1.71 µM	105	117	125
HPLM + 10% dialyzed FBS, 5.12 µM	108	113	112
HPLM + 10% dialyzed FBS, 15.4 µM	123	118	133
HPLM + 10% dialyzed FBS, 46.1 µM	120	112	106
RPMI 5 mM glucose + 10% FBS, 0.000781 µM	–	123	113
RPMI 5 mM glucose + 10% FBS, 0.00234 µM	–	118	123
RPMI 5 mM glucose + 10% FBS, 0.00702 µM	–	127	134
RPMI 5 mM glucose + 10% FBS, 0.0211 µM	–	128	109
RPMI 5 mM glucose + 10% FBS, 0.0632 µM	–	131	131
RPMI 5 mM glucose + 10% FBS, 0.19 µM	–	122	130
RPMI 5 mM glucose + 10% FBS, 0.569 µM	–	121	133
RPMI 5 mM glucose + 10% FBS, 1.71 µM	–	123	144
RPMI 5 mM glucose + 10% FBS, 5.12 µM	–	115	128
RPMI 5 mM glucose + 10% FBS, 15.4 µM	–	110	144
RPMI 5 mM glucose + 10% FBS, 46.1 µM	–	113	116
RPMI 5 mM glucose + 10% dialyzed FBS, 0.000781 µM	–	127	106
RPMI 5 mM glucose + 10% dialyzed FBS, 0.00234 µM	–	121	133
RPMI 5 mM glucose + 10% dialyzed FBS, 0.00702 µM	–	122	121
RPMI 5 mM glucose + 10% dialyzed FBS, 0.0211 µM	–	116	126
RPMI 5 mM glucose + 10% dialyzed FBS, 0.0632 µM	–	132	129
RPMI 5 mM glucose + 10% dialyzed FBS, 0.19 µM	–	110	146
RPMI 5 mM glucose + 10% dialyzed FBS, 0.569 µM	–	122	157
RPMI 5 mM glucose + 10% dialyzed FBS, 1.71 µM	–	115	156
RPMI 5 mM glucose + 10% dialyzed FBS, 5.12 µM	–	119	147
RPMI 5 mM glucose + 10% dialyzed FBS, 15.4 µM	–	92.4	148
RPMI 5 mM glucose + 10% dialyzed FBS, 46.1 µM	–	110	126

AUC of viability dose-response curve
Conditions	[4]	[5]	[6]
HPLM + 10% dialyzed FBS	447	467	461
RPMI 5 mM glucose + 10% FBS	435	465	460
RPMI 5 mM glucose + 10% dialyzed FBS	471	465	442
